This is an account of results in patent US20250025523A1, “COMPOSITION FOR PREVENTING OR TREATING MUSCLE DISEASE COMPRISING SARGASSUM SERRATIFOLIUM EXTRACT” (PUKYONG NATIONAL UNIVERSITY INDUSTRY- UNIVERSITY …, priority 2021, published 2025).

This data set can be described thus: Body weight change in dexamethasone muscle atrophy mouse model. In kind it is in vivo, C57BL/6 mice. The conditions noted are these: DEX group: dexamethasone 10 mg/kg/day i.p. 4 weeks, olive oil orally; at sacrifice. As to the method: Specifically, three-week-old male C57BL/6 mice were provided with free access to water and food and were acclimated under conditions of 23±2° C., relative humidity of 50±5%, and a 12-hour light/dark cycle. […] In the untreated group, an equivalent volume of saline was administered intraperitoneally. Body weight and food intake were evaluated daily. The experiment was conducted with the approval of the Pukyong National University Animal Care and Use Committee, in accordance with Pukyong National University's animal experiment ethics regulations.

With `C[C@@H]1C[C@H]2[C@@H]3CCC4=CC(=O)C=C[C@]4(C)[C@@]3(F)[C@@H](O)C[C@]2(C)[C@@]1(O)C(=O)CO` [DEX, dexamethasone], the “Body weight (g) Sacrifice [B]” value was found to be 27.9 ± 3.25 g.
